According to article PMC7751403, “Development of 2-oindolin-3-ylidene-indole-3-carbohydrazide derivatives as novel apoptotic and anti-proliferative agents towards colorectal cancer cells” (Journal of Enzyme Inhibition and Medicinal Chemistry, 2020):

System: SW-620 colorectal cancer cell line
Experiment: MTT cell viability assay, SW-620 colorectal cancer cells
Type: cell-based, human
Conditions: Homo sapiens, SW-620, 72 h, MTT, 5FU 72 h; read-out: IC50 against SW-620
Method: (§1) HT29 and SW620 colorectal cancer cell lines and HFF-1 fibroblast (ATCC, Rockville, USA) were used. HT29 cells were cultured and maintained in Dulbecco’s Modified Eagle’s Medium (DMEM) (GIBCO, by Thermo Fischer Scientific, NY, USA) supplemented with 10% foetal bovine serum (FBS), 100 units/mL penicillin, and 100 µg streptomycin. SW620 and HFF-1 cells were cultured in Roswell Park Memorial Institute medium (RPMI-1640) (GIBCO, by Thermo scientific, NY, USA) supplemented with 10% FBS and 1% penicillin and streptomycin (Napolitano et al., 2015). All cultures were incubated at 37 °C and humidified atmosphere of 5% CO2.
(§2) The cytotoxicity effect of compounds on the colorectal cancer cell lines, HT29 and SW620 in addition to the normal human fibroblasts was measured by MTT (3–(4, 5-dimethylthiazol-2-yl)-2,5-diphenyltetrazolium bromide) (Sigma-Aldrich, St. Louis, MO, USA) as previously described. Briefly, cells were seeded in 96 well culture plates at 5000/well for HT29 and 10,000/well for SW620 for 24 h. Cells were then incubated with different compounds from WAG1 series (1–15) 24 h at 37 °C and humidified 5% CO2 incubator. Freshly prepared 10 µl of 3–(4,5-dimethylthiazol-2-yl)-2,5-diphenyltetrazolium bromide (MTT 5 mM) solution were added to the cells and further incubated for 2 h. Thereafter, 100 µl of dimethyl sulphoxide (DMSO) were added in each well and the crystals were dissolved through careful pipetting. In certain experiment, cells were treated different concentration of 5FU for 72 h. The absorbance of the product was measured at 540 nm using a Synergy™ 2 multi-mode microplate reader (Biotech, VA, USA). The experiments were performed in triplicate for each condition.

Structure (SMILES)	IC50 [nM]
O=c1[nH]cc(F)c(=O)[nH]1 [Compound 5-FU, 5-Fluorouracil, reference compound]	4600

Same assay, conditions: Homo sapiens, SW-620, MTT, compounds 24 h (5FU 72 h), three separate experiments; read-out: IC50 (nM) SW-620

Structure (SMILES)	IC50 [nM]
O=c1[nH]cc(F)c(=O)[nH]1 [Compound 5-FU, 5-Fluorouracil, reference compound]	1500
O=C1Nc2ccccc2C1=NNC(=O)c1c[nH]c2ccccc12 [Compound 7a, N'-(2-Oxoindolin-3-ylidene)-1H-indole-3-carbohydrazide]	145
O=C1Nc2ccc(F)cc2C1=NNC(=O)c1c[nH]c2ccccc12 [Compound 7b, N'-(5-Fluoro-2-oxoindolin-3-ylidene)-1H-indole-3-carbohydrazide]	175
O=C1Nc2ccc(Cl)cc2C1=NNC(=O)c1c[nH]c2ccccc12 [Compound 7c, N'-(5-Chloro-2-oxoindolin-3-ylidene)-1H-indole-3-carbohydrazide]	206
O=C1Nc2ccc(Br)cc2C1=NNC(=O)c1c[nH]c2ccccc12 [Compound 7d, N'-(5-Bromo-2-oxoindolin-3-ylidene)-1H-indole-3-carbohydrazide]	133
Cc1ccc2c(c1)C(=NNC(=O)c1c[nH]c3ccccc13)C(=O)N2 [Compound 7e, N'-(5-Methyl-2-oxoindolin-3-ylidene)-1H-indole-3-carbohydrazide]	253
COc1ccc2c(c1)C(=NNC(=O)c1c[nH]c3ccccc13)C(=O)N2 [Compound 7f, N'-(5-Methoxy-2-oxoindolin-3-ylidene)-1H-indole-3-carbohydrazide]	37
O=C1Nc2ccc(OC(F)(F)F)cc2C1=NNC(=O)c1c[nH]c2ccccc12 [Compound 7g, N'-(2-Oxo-5-(trifluoromethoxy)indolin-3-ylidene)-1H-indole-3-carbohydrazide]	299

Same assay, conditions: MTT, compounds 24 h (5FU 72 h), three separate experiments; read-out: IC50 (nM) SW-620

Structure (SMILES)	IC50 [nM]
O=C1Nc2ccc(Cl)cc2C1=NNC(=O)c1c[nH]c2ccccc12 [Compound 7c, N'-(5-Chloro-2-oxoindolin-3-ylidene)-1H-indole-3-carbohydrazide]	188
O=C1Nc2ccc(OC(F)(F)F)cc2C1=NNC(=O)c1c[nH]c2ccccc12 [Compound 7g, N'-(2-Oxo-5-(trifluoromethoxy)indolin-3-ylidene)-1H-indole-3-carbohydrazide]	279

System: not given
Experiment: not given
Conditions: not given

Structure (SMILES)	melting point [°C]
O=C1Nc2ccccc2C1=NNC(=O)c1c[nH]c2ccccc12 [Compound 7a, N'-(2-Oxoindolin-3-ylidene)-1H-indole-3-carbohydrazide]	259 to 261
O=C1Nc2ccc(F)cc2C1=NNC(=O)c1c[nH]c2ccccc12 [Compound 7b, N'-(5-Fluoro-2-oxoindolin-3-ylidene)-1H-indole-3-carbohydrazide]	> 300
O=C1Nc2ccc(Br)cc2C1=NNC(=O)c1c[nH]c2ccccc12 [Compound 7d, N'-(5-Bromo-2-oxoindolin-3-ylidene)-1H-indole-3-carbohydrazide]	247 to 249
Cc1ccc2c(c1)C(=NNC(=O)c1c[nH]c3ccccc13)C(=O)N2 [Compound 7e, N'-(5-Methyl-2-oxoindolin-3-ylidene)-1H-indole-3-carbohydrazide]	201 to 203
COc1ccc2c(c1)C(=NNC(=O)c1c[nH]c3ccccc13)C(=O)N2 [Compound 7f, N'-(5-Methoxy-2-oxoindolin-3-ylidene)-1H-indole-3-carbohydrazide]	197 to 199

System: HT-29 colorectal cancer cell line
Experiment: MTT cell viability assay, HT-29 colorectal cancer cells
Type: cell-based, human
Conditions: Homo sapiens, HT-29, 72 h, MTT, 5FU 72 h; read-out: IC50 against HT-29
Method: as §1, §2

Structure (SMILES)	IC50 [nM]
O=c1[nH]cc(F)c(=O)[nH]1 [Compound 5-FU, 5-Fluorouracil, reference compound]	1500

Same assay, conditions: Homo sapiens, HT-29, MTT, compounds 24 h (5FU 72 h), three separate experiments; read-out: IC50 (nM) HT-29

Structure (SMILES)	IC50 [nM]
O=c1[nH]cc(F)c(=O)[nH]1 [Compound 5-FU, 5-Fluorouracil, reference compound]	4600
O=C1Nc2ccccc2C1=NNC(=O)c1c[nH]c2ccccc12 [Compound 7a, N'-(2-Oxoindolin-3-ylidene)-1H-indole-3-carbohydrazide]	408
O=C1Nc2ccc(F)cc2C1=NNC(=O)c1c[nH]c2ccccc12 [Compound 7b, N'-(5-Fluoro-2-oxoindolin-3-ylidene)-1H-indole-3-carbohydrazide]	611
O=C1Nc2ccc(Cl)cc2C1=NNC(=O)c1c[nH]c2ccccc12 [Compound 7c, N'-(5-Chloro-2-oxoindolin-3-ylidene)-1H-indole-3-carbohydrazide]	188
O=C1Nc2ccc(Br)cc2C1=NNC(=O)c1c[nH]c2ccccc12 [Compound 7d, N'-(5-Bromo-2-oxoindolin-3-ylidene)-1H-indole-3-carbohydrazide]	320
Cc1ccc2c(c1)C(=NNC(=O)c1c[nH]c3ccccc13)C(=O)N2 [Compound 7e, N'-(5-Methyl-2-oxoindolin-3-ylidene)-1H-indole-3-carbohydrazide]	335
COc1ccc2c(c1)C(=NNC(=O)c1c[nH]c3ccccc13)C(=O)N2 [Compound 7f, N'-(5-Methoxy-2-oxoindolin-3-ylidene)-1H-indole-3-carbohydrazide]	142
O=C1Nc2ccc(OC(F)(F)F)cc2C1=NNC(=O)c1c[nH]c2ccccc12 [Compound 7g, N'-(2-Oxo-5-(trifluoromethoxy)indolin-3-ylidene)-1H-indole-3-carbohydrazide]	279

Same assay, conditions: MTT, compounds 24 h (5FU 72 h), three separate experiments; read-out: IC50 (nM) HT-29

Structure (SMILES)	IC50 [nM]
O=C1Nc2ccc(Cl)cc2C1=NNC(=O)c1c[nH]c2ccccc12 [Compound 7c, N'-(5-Chloro-2-oxoindolin-3-ylidene)-1H-indole-3-carbohydrazide]	206
O=C1Nc2ccc(OC(F)(F)F)cc2C1=NNC(=O)c1c[nH]c2ccccc12 [Compound 7g, N'-(2-Oxo-5-(trifluoromethoxy)indolin-3-ylidene)-1H-indole-3-carbohydrazide]	299

System: Bcl2
Experiment: Western blot of Bcl2 protein expression in SW-620 cells
Type: cell-based, human
Conditions: SW-620, two concentrations, 24 h, immunoblotting
Method: (§3) All cells were seeded in a 100 mm dish (1 × 10^6 cells per dish) in 5% CO2 at 37 °C in the appropriate culture medium. The cells with around 50% confluency were treated with compounds for 24 h. At the experiment day, cells were washed with 1x PBS, harvested and lysed in RIPA lysis buffer, combined with protease inhibitors, (Sigma-Aldrich, St. Louis, MO, USA) as described previously[39]). The total protein concentration was evaluated by the colorimetric Bradford protein assay (BIO-RAD inc, CA, USA) at 595 nm absorbance. Lysates were loaded in equal concentration and separated by sodium dodecyl sulfate-polyacrylamide gel electrophoresis (SDS-PAGE) and then transferred to a nitrocellulose membrane by semi-dry. Blocking of the membrane was done by 5% non-fat dried milk for one hour, incubated with the primary antibodies. The primary antibodies used were Bcl2 (cat. no. sc-7382), BclxL (cat. no. sc-8392) and β Actin (cat. no. sc-69879) from (Santa Cruz Biotechnology, Inc., Dallas, TX, USA). The secondary antibodies used were goat anti-mouse IgG-HRP (cat. no. sc-2005) and mouse anti-rabbit IgG-HRP (cat. no. sc-2357) from (Santa Cruz Biotechnology, Inc., Dallas, TX, USA). Detection was done with Luminol HRP chemiluminescence substrate (cat. no. sc-2048) from (Santa Cruz Biotechnology, Inc., Dallas, TX, USA) and then visualised by c-digit blot-scanner (LI-COR, Nebraska, USA).

Structure (SMILES)	Bcl2 protein expression
O=C1Nc2ccc(Cl)cc2C1=NNC(=O)c1c[nH]c2ccccc12 [Compound 7c, N'-(5-Chloro-2-oxoindolin-3-ylidene)-1H-indole-3-carbohydrazide]	dose-dependent inhibition
O=C1Nc2ccc(OC(F)(F)F)cc2C1=NNC(=O)c1c[nH]c2ccccc12 [Compound 7g, N'-(2-Oxo-5-(trifluoromethoxy)indolin-3-ylidene)-1H-indole-3-carbohydrazide]	inhibit

System: normal human skin fibroblast (HFF-1)
Experiment: MTT cell viability assay, normal fibroblast HFF-1
Type: cell-based
Conditions: 24 h
Method: as §1
The cytotoxicity effect of compounds on the colorectal cancer cell lines, HT29 and SW620 in addition to the normal human fibroblasts was measured by MTT (3–(4, 5-dimethylthiazol-2-yl)-2,5-diphenyltetrazolium bromide) (Sigma-Aldrich, St. Louis, MO, USA) as previously described. Briefly, cells were seeded in 96 well culture plates at 5000/well for HT29 and 10,000/well for SW620 for 24 h. Cells were then incubated with different compounds from WAG1 series (1–15) 24 h at 37 °C and humidified 5% CO2 incubator. […] The absorbance of the product was measured at 540 nm using a Synergy™ 2 multi-mode microplate reader (Biotech, VA, USA). […]

Structure (SMILES)	effect on cell viability of HFF-1
O=C1Nc2ccc(Cl)cc2C1=NNC(=O)c1c[nH]c2ccccc12 [Compound 7c, N'-(5-Chloro-2-oxoindolin-3-ylidene)-1H-indole-3-carbohydrazide]	no/or little effect
O=C1Nc2ccc(OC(F)(F)F)cc2C1=NNC(=O)c1c[nH]c2ccccc12 [Compound 7g, N'-(2-Oxo-5-(trifluoromethoxy)indolin-3-ylidene)-1H-indole-3-carbohydrazide]	no/or little effect

System: SW-620 cells
Experiment: Annexin V-FITC/PI apoptosis assay (flow cytometry)
Type: cell-based, human
Conditions: SW-620, 250 nM, 24 h
Method: Induction of apoptosis was measured by Dead Cell Apoptosis Kit with Annexin V FITC and PI, for flow cytometry (Thermofischer scientific, OR, USA) according to the manufacturer’s instruction. As described previously (39), cells were seeded in a 6-well plate (3 × 10^5 cells per well) and treated with the various compound for 24 h. Both floating and adherent cells were harvested, pooled together, and incubated with Annexin V-FITC and PI for 15 min on ice in dark. The cells were analysed by BD FACSCalibur™ cell analyser (BD Biosciences, CA, USA) at an emission of 530 nm (FL1 channel) and >575 nm (FL3).

Structure (SMILES)	fold total apoptosis increase compared to the control
O=C1Nc2ccc(Cl)cc2C1=NNC(=O)c1c[nH]c2ccccc12 [Compound 7c, N'-(5-Chloro-2-oxoindolin-3-ylidene)-1H-indole-3-carbohydrazide]	approximately 5.2 fold
O=C1Nc2ccc(OC(F)(F)F)cc2C1=NNC(=O)c1c[nH]c2ccccc12 [Compound 7g, N'-(2-Oxo-5-(trifluoromethoxy)indolin-3-ylidene)-1H-indole-3-carbohydrazide]	approximately 7.3 fold

Same assay, conditions: SW-620, 500 nM, 24 h

Structure (SMILES)	fold total apoptosis increase compared to the control [fold]
O=C1Nc2ccc(Cl)cc2C1=NNC(=O)c1c[nH]c2ccccc12 [Compound 7c, N'-(5-Chloro-2-oxoindolin-3-ylidene)-1H-indole-3-carbohydrazide]	~10.66
O=C1Nc2ccc(OC(F)(F)F)cc2C1=NNC(=O)c1c[nH]c2ccccc12 [Compound 7g, N'-(2-Oxo-5-(trifluoromethoxy)indolin-3-ylidene)-1H-indole-3-carbohydrazide]	~9.6

System: BclxL
Experiment: Western blot of BclxL protein expression in SW-620 cells
Type: cell-based, human
Conditions: SW-620, two concentrations, 24 h, immunoblotting
Method: as §3

Structure (SMILES)	BclxL protein expression
O=C1Nc2ccc(Cl)cc2C1=NNC(=O)c1c[nH]c2ccccc12 [Compound 7c, N'-(5-Chloro-2-oxoindolin-3-ylidene)-1H-indole-3-carbohydrazide]	dose-dependent inhibition
O=C1Nc2ccc(OC(F)(F)F)cc2C1=NNC(=O)c1c[nH]c2ccccc12 [Compound 7g, N'-(2-Oxo-5-(trifluoromethoxy)indolin-3-ylidene)-1H-indole-3-carbohydrazide]	inhibit
